In PMC4434909, “In vitro properties of designed antimicrobial peptides that exhibit potent antipneumococcal activity and produces synergism in combination with penicillin” (Scientific Reports, 2015):

Experiments:
PRSP, PISP, and PSSP = assay type: cell-based, Streptococcus pneumoniae; conditions: 30 min post treatment, 2× MIC, 5 × 10^6 CFU/ml in CAMHB, plate count, relative to untreated control
Experimental: This assay was performed to evaluate the killing kinetics of peptides. One PRSP, PISP, and PSSP isolate were each grown and prepared to 5 × 10^6 CFU/ml. Each isolate in CAMHB was challenged with peptides at two times the respective MIC values. At the indicated time intervals (0, 30, 60, 120, 150, 180, 210, and 240 min; “0” indicate pretreatment), 10 μl of suspension was removed and immediately serially diluted in cold phosphate-buffered saline to arrest further reaction before spread-plated on MHA to obtain viable colony counts. The percentage cell recovered was calculated by dividing the surviving CFU of the treated cells over the surviving CFU of the untreated control cells at the respective time points. Results were pooled from three independent experiments and expressed as mean ± standard deviation (SD).

human erythrocytes = assay: Hemolytic activity; assay type: cell-based
Experimental: Hemolytic assay was performed as described. Freshly drawn human erythrocytes were rinsed three times with PBS and resuspended in PBS to 4% (v/v). One hundred microliters of the suspension was added to 96-well microtiter plate containing equal volume of peptides to give final concentrations of peptides encompassing the range of 1.96–250 μg/ml. PBS and 0.1% (v/v) Triton-X 100 were used as 0% and 100% hemolytic control respectively. Plates were incubated at 37°C for 1 hr. Subsequently, the plate was centrifuged and the supernatant was transferred to a new plate. The release of hemoglobin in the supernatant was monitored at absorbance of 450 nm using Glomax Multidetection system (Promega, USA). Results were pooled from three independent experiments and expressed as mean ± SD. HC10 and HC50 were defined as the peptide concentrations causing 10% and 50% hemolysis on human erythrocytes, respectively. Hmax was the percentage hemolysis observed at the maximum concentration as defined throughout this study (all peptides 250 μg/ml, PEN 4 μg/ml).

A549 cell line = assay: Cytotoxicity against human cell lines (CellTiter 96 AQueous); assay type: cell-based
Experimental: (§1) Both the NL20 human lung bronchial normal epithelial cell line and the A549 human lung alveolar adenocarcinoma epithelial cell line were used for cell cytotoxicity tests. Besides investigating the cytotoxicity of peptides, differences in cell viability between the two cell lines can be used to evaluate the cell line selectivity and to assess potential anticancer potential of the peptides. NL20 cell line was grown in Ham's F12 medium and A549 cell line was grown in Roswell Park Memorial Institute medium. Both media were supplemented with fetal bovine serum to 10% (v/v) as growth medium or 2% (v/v) as maintenance medium in cell cytotoxicity testing. The assay was performed as described by Lee et al.[26]. NL20 cells was seeded overnight at 3 × 10^4 cells/well in 96-well cell culture-treated flat bottom microtiter plate and treated with serial dilutions of peptide at a final concentration of 1.95–250 μg/ml. PEN was tested from 0.03–4 μg/ml, the same range used to classify the susceptibility of pneumococcal isolates in this study. Test using A549 cells followed the same procedures with 1 × 10^4 cells/well. Plates were incubated at 37°C under 5% CO2 for 24, 48, and 72 hrs. Cell viability was detected by using CellTiter 96® AQueous Non-Radioactive Cell Proliferation assay (Promega, USA) and the colorimetric changes were read with Glomax multidetection system (Promega, USA) at OD 490 nm. Results were pooled from three independent experiments and expressed as mean ± SD. […] Imax was the percentage of cell viable treated with peptides/PEN at the maximum concentration as defined throughout this study (all peptides 250 μg/ml, PEN 4 μg/ml).

NL20 cell line = assay: as above; assay type: cell-based
Experimental: as §1

## penicillin [reference compound]
PRSP, PISP, and PSSP
  CFU recovered (viability), all three groups of pneumococci: 60–78%
Human erythrocytes
  HC10: >4 µg/mL
  HC50: >4 µg/mL
A549 cell line
  IC50, A549 cell line, 24 hrs: >4 µg/mL
  IC50, A549 cell line, 48 hrs: >4 µg/mL
  IC50, A549 cell line, 72 hrs: >4 µg/mL
NL20 cell line
  IC50, NL20 cell line, 24 hrs: >4 µg/mL
  IC50, NL20 cell line, 48 hrs: >4 µg/mL
  IC50, NL20 cell line, 72 hrs: >4 µg/mL
  Imax, NL20 cell line, 24 hrs: 105.2 ± 0.2%
  Imax, NL20 cell line, 48 hrs: 106.1 ± 6.2%
  Imax, NL20 cell line, 72 hrs: 88.3 ± 0.4%
